Measured values from ChEMBL document CHEMBL1141367, “Substituted 2-[(4-aminomethyl)phenoxy]-2-methylpropionic acid PPARalpha agonists. 1. Discovery of a novel series of potent HDLc raising agents” (J Med Chem, 2007).

Columns and labels:
[1] = target: T1, Peroxisome proliferator-activated receptor alpha (Homo sapiens, UniProt Q07869)
T1 sequence (Q07869 whole entry): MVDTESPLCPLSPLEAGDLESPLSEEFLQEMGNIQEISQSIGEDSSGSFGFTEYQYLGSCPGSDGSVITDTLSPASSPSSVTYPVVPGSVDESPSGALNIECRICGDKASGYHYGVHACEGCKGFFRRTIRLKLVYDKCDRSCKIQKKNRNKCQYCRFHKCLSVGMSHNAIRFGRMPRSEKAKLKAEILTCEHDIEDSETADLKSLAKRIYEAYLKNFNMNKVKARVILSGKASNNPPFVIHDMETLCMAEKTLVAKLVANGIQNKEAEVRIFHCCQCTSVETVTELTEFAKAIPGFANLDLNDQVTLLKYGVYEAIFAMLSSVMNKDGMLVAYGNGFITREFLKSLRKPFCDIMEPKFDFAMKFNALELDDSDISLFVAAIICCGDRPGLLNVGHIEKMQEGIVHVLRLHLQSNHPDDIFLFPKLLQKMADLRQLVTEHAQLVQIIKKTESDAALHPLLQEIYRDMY
Description: Agonist potency at PPARalpha in CV1 cells by cell based transient transfection assay

[2] = target: T2, Peroxisome proliferator-activated receptor delta (Homo sapiens, UniProt Q03181)
T2 sequence (Q03181 whole entry): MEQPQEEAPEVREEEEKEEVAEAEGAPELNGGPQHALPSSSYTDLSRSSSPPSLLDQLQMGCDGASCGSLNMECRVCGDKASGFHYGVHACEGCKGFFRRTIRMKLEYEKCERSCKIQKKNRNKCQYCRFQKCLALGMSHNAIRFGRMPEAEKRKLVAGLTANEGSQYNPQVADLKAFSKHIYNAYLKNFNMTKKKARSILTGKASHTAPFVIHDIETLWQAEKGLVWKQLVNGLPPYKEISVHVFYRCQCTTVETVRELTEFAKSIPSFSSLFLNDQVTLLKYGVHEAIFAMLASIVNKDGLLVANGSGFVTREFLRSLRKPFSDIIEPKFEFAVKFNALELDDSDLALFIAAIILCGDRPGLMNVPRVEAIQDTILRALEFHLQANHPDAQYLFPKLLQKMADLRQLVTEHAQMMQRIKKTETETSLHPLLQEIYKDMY
Description: Agonist potency at PPARdelta in CV1 cells by cell based transient transfection assay

[3] = target: T3, Peroxisome proliferator-activated receptor gamma (Homo sapiens, UniProt P37231); type: functional, cell-based, CV-1
T3 sequence (P37231 whole entry): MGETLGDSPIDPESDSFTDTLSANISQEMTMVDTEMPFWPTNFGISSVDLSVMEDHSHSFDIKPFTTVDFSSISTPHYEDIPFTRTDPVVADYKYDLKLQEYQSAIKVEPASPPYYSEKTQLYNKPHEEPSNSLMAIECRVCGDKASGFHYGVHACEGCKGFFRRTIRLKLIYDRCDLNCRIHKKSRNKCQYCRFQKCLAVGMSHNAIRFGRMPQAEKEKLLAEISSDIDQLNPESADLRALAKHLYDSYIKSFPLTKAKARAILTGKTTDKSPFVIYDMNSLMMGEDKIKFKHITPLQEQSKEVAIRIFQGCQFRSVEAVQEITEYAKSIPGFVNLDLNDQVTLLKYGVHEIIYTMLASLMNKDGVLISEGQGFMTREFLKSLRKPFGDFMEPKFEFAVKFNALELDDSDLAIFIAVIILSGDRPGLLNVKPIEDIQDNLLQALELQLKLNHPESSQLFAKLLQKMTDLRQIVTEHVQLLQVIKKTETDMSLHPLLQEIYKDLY
Description: Agonist potency at PPARgamma in CV1 cells by cell based transient transfection assay

[4] = target: T4, Peroxisome proliferator-activated receptor alpha (Homo sapiens) (UniProt Q07869); test: Agonist potency at PPARalpha expressed in CV1 cells relative to GW-590735; type: functional, cell-based; details: CV-1
T4 sequence (whole entry): T1 sequence (Q07869 whole entry)

Mus musculus [5] = test: Decrease in plasma VLDL level in human Apo-A-I transgenic C57BL/6 mouse at 50 mg/kg; type: functional; parameters: scale not given: the % may be the effect or the level left
Mus musculus [6] = test: Decrease in plasma TG level in human Apo-A-I transgenic C57BL/6 mouse at 50 mg/kg; type: functional; parameters: scale not given: the % may be the effect or the level left
Mus musculus [7] = test: Decrease in LDL cholesterol level in human Apo-A-I transgenic C57BL/6 mouse at 50 mg/kg; type: functional; parameters: scale not given: the % may be the effect or the level left
Mus musculus [8] = test: Increase in HDL cholesterol level in human Apo-A-I transgenic C57BL/6 mouse at 50 mg/kg; type: functional

Row | Structure (SMILES) | EC50 [1] | EC50 [2] | EC50 [3] | Activity [4] | Activity (Mus musculus [5]) | Activity (Mus musculus [6]) | Activity (Mus musculus [7]) | Activity (Mus musculus [8])
1 | Cc1nc(-c2cccc(C(F)(F)F)c2)sc1C(=O)NCc1ccc(OC(C)(C)C(=O)O)cc1 | 4 nM | > 25000 nM | > 25000 nM | 106% | – | – | – | –
2 | Cc1cc(SCc2sc(-c3ccc(C(F)(F)F)cc3)nc2C)ccc1OCC(=O)O | – | – | – | 108% | – | – | – | –
3 | Cc1nc(-c2ccc(O)cc2)sc1C(=O)NCc1ccc(OC(C)(C)C(=O)O)cc1 | > 10000 nM | > 10000 nM | > 10000 nM | – | – | – | – | –
4 | CC(C)OC(=O)C(C)(C)Oc1ccc(C(=O)c2ccc(Cl)cc2)cc1 [FENOFIBRATE] | – | – | – | – | 64% | 43% | 78% | 26%
5 | Cc1nc(-c2ccc(Cl)cc2)sc1C(=O)NCc1ccc(OC(C)(C)C(=O)O)cc1 | 10 nM | – | > 10000 nM | 94% | – | – | – | –
6 | Cc1nc(C(=O)NCc2ccc(OC(C)(C)C(=O)O)cc2)c(C)s1 | 1890 nM | 660 nM | > 10000 nM | 171% | – | – | – | –
7 | Cc1nc(-c2ccc(N)cc2)sc1C(=O)NCc1ccc(OC(C)(C)C(=O)O)cc1 | 5640 nM | > 10000 nM | > 10000 nM | 67% | – | – | – | –
8 | Cc1cc(CCc2sc(-c3ccc(C(F)(F)F)cc3)nc2C)ccc1OCC(=O)O | 2000 nM | 4 nM | 10000 nM | 85% | – | – | – | –
9 | Cc1nc(-c2ccc(F)cc2)sc1C(=O)NCc1ccc(OC(C)(C)C(=O)O)cc1 | 40 nM | > 10000 nM | > 10000 nM | 118% | – | – | – | –
10 | Cc1nc(-c2ccc(C(F)(F)F)cc2)sc1C(=O)Nc1ccc(OC(C)(C)C(=O)O)cc1 | 9500 nM | > 10000 nM | > 10000 nM | 69% | – | – | – | –
11 | Cc1nc(-c2ccc(C(F)(F)F)cc2)sc1CNC(=O)c1ccc(OC(C)(C)C(=O)O)cc1 | 1320 nM | 6260 nM | > 10000 nM | 109% | – | – | – | –
12 | Cc1nc(-c2ccc(C(F)(F)F)cc2)sc1C(=O)N(C)Cc1ccc(OC(C)(C)C(=O)O)cc1 | 240 nM | > 10000 nM | > 10000 nM | 84% | – | – | – | –
13 | Cc1nc(-c2ccccc2C(F)(F)F)sc1C(=O)NCc1ccc(OC(C)(C)C(=O)O)cc1 | 465 nM | 808 nM | > 25000 nM | 82% | – | – | – | –

More lines, main results first:

Row | EC50 [1] | EC50 [2] | EC50 [3] | Activity [4] | Structure (SMILES) | Activity (Mus musculus [5]) | Activity (Mus musculus [6]) | Activity (Mus musculus [7]) | Activity (Mus musculus [8])
14 | 70 nM | 4050 nM | > 10000 nM | 110% | Cc1nc(-c2ccc(C(F)(F)F)cc2)sc1CNCc1ccc(OC(C)(C)C(=O)O)cc1 | – | – | – | –
15 | 10 nM | > 10000 nM | > 10000 nM | 103% | COc1ccc(-c2nc(C)c(C(=O)NCc3ccc(OC(C)(C)C(=O)O)cc3)s2)cc1 | – | – | – | –
16 | 30 nM | > 10000 nM | > 10000 nM | 111% | Cc1nc(-c2ccc([N+](=O)[O-])cc2)sc1C(=O)NCc1ccc(OC(C)(C)C(=O)O)cc1 | – | – | – | –
17 | 110 nM | > 10000 nM | > 10000 nM | 129% | Cc1nc(-c2ccc(C(F)(F)F)cc2)sc1C(=O)NCCc1ccc(OC(C)(C)C(=O)O)cc1 | – | – | – | –
18 | 4 nM | 8240 nM | 730 nM | 98% | CC(C)(Oc1ccc(CNC(=O)c2sc(-c3ccc(C(F)(F)F)cc3)nc2C(F)(F)F)cc1)C(=O)O | – | – | – | –
19 | 210 nM | 20 nM | 1870 nM | 138% | Cc1nc(-c2ccc(C(F)(F)F)cc2)sc1CCc1ccc(OC(C)(C)C(=O)O)cc1 | – | – | – | –
20 | – | – | > 10000 nM | 116% | Cc1nc(-c2ccc(OC(F)(F)F)cc2)sc1C(=O)NCc1ccc(OC(C)(C)C(=O)O)cc1 | – | – | – | –
21 | > 10000 nM | > 10000 nM | > 10000 nM | – | Cc1nc(-c2ccc(OS(C)(=O)=O)cc2)sc1C(=O)NCc1ccc(OC(C)(C)C(=O)O)cc1 | – | – | – | –
22 | – | > 10000 nM | 860 nM | 66% | Cc1nc(-c2ccc(C(C)(C)C)cc2)sc1C(=O)NCc1ccc(OC(C)(C)C(=O)O)cc1 | – | – | – | –
